The values that follow are results of earlier work, collected in article PMC12839115, “2-Arylbenzofurans as Selective Cholinesterase Inhibitors: Design, Synthesis, and Evaluation as Alzheimer’s Disease Agents” (Biomolecules, 2026).

For the data set, the target named is T1, BChE (EC 3.1.1.8) from equine serum (Equus caballus, UniProt P81908).
T1 construct: BChE (EC 3.1.1.8) from equine serum were employed; from tissue; host or cells: equine serum
T1 sequence (P81908 whole entry): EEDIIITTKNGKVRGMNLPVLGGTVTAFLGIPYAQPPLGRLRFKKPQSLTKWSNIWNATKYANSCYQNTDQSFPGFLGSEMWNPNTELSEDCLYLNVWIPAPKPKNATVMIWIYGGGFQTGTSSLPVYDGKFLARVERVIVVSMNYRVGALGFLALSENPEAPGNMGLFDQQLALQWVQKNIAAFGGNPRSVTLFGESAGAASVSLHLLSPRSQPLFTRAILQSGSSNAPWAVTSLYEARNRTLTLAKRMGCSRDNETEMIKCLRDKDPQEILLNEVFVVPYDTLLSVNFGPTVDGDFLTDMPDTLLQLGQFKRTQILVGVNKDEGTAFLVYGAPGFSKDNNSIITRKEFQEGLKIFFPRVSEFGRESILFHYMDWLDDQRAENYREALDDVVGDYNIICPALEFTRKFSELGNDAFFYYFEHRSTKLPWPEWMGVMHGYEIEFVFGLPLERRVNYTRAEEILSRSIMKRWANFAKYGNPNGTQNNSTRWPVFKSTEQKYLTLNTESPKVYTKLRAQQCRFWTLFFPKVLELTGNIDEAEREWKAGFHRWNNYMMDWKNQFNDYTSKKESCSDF

Turning to `Oc1cccc(-c2cc3cccc(Br)c3o2)c1` [C00010], the IC50 (in general, the concentration that gives 50% inhibition) is 7.96 ± 0.28 µM.
As to `Oc1cccc(-c2cc3cccc(Cl)c3o2)c1` [C00004], the IC50 is 13.4 ± 2.57 µM.
